Assay results as given in patent publication US20240360134A1, “PYRAZOLOPYRIMIDINES AND THEIR USES AS PDGFR INHIBITORS” (priority 2021, published 2024).

Experiments:
[1] = biological target: His6-TEV-PDGFRβ (557-1016) (Homo sapiens (Human), UniProt P09619); test: PDGFRβ HTRF Assay; assay type: biochemical; conditions: 800 μM ATP, 0.5 μM TK-substrate biotin peptide, 30 min pre-incubation, 3 hours reaction; read-out: PDGFR HTRF IC50
Protocol: Instrumentation: a. Compound liquid handling: LabCyte Echo; b. Reagent liquid handling: Thermo Scientific Multidrop Combi; c. BMG PHERAStar multilabel plate reader.
Protein Reagent: His6-TEV-PDGFRβ Protein Prep prepared at Accelagen.
Assay buffer stock solution, contains 50 mM Hepes, 10 mM MgCl2, 1 mM EGTA, and 0.01% Brij-35, 0.01% ovalbumin, 2 mM DTT at pH 7.5, in molecular biology grade water. Store at room temperature.
Assay buffer. Dilute 5× Kinase buffer 5-fold with molecular biology grade water and add DTT to 2 mM and ovalbumin to 0.1 mg/mL (or 0.01%).
2× protein solution. Make a working solution of […] PDGFRβ in assay buffer. Keep on ice until use to maintain enzyme stability.
2× substrate solution. Make a working solution of 1.6 mM ATP and 1 μM TK-substrate biotin peptide in assay buffer. 3× quench/detection solution.
Step 2. PDGFRβ E+I pre-incubation: Add 2 μL 2× protein solution to columns 1-24 using the Multidrop Combi. Centrifuge at 1000 rpm for 1 min. Incubate 30 min at RT
Step 2. Enzymatic reaction: Add 2 μL substrate solution to columns 1-24 to initiate the reaction using the Multidrop Combi; cover/seal the assay plate to reduce evaporation. Centrifuge at 1000 rpm for 1 min. Incubate at room temperature for 3 hours.
Final concentrations of components in PDGFRp cascade assay:
0.5 μM TK-substrate biotin peptide
Step 3. Quench/Detection: Add 2 μl 3× quench/detection solution to columns 1-24 using the Multidrop Combi; cover/seal the plate. Centrifuge 1 min 1000 rpm. Incubate at RT for 60 min.
HTRF ratio values calculated by the instrument (Ratio is acceptor counts/donor counts*10,000) is exported from the plate reader and used in data analysis. The exported data will be used to calculate 1) compound activity and 2) assay statistics. […] Assay statistics can include Robust Z′ and Signal to Background.
% Inhibition Calculation: Percent inhibition will be calculated for sample wells based on the equation: […]
IC50 Calculation: For IC50 determination, full 11-point dose response data will be processed using the following equation: […]

[2] = biological target: Tb-labeled inactive PDGFRβ (Homo sapiens (Human), UniProt P09619); test: biochemical; assay type: binding; conditions: read-out: PDGFR Lantha IC50
PDGFRβ = PDGFRβ (Rattus norvegicus (Rat), UniProt Q05030); test: PDGFRβ Cellular Assay (PDGFRb P-Y751 HTRF, PDGF-BB stimulated A10 cells); assay type: cell-based; conditions: A10 cells, 3 hours compound, 15 ng/mL PDGFbb for 10 minutes; read-out: PDGFR Cellular IC50
Procedure, shortened: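 Rat A10 cells plated overnight were treated with compound for 3 h, stimulated with rat PDGF-BB (working stock 100 ng/mL in 10% FBS medium) for 10 min, then lysed.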

VEGFR2, unphosphorylated = VEGFR2, unphosphorylated (Homo sapiens (Human), UniProt P35968); test: VEGFR ADP GLO assay; assay type: biochemical; conditions: 5 nM VEGFR2, 1.2 mM ATP, 1 mg/mL Srctide, 180 min
Procedure, shortened: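 Unphosphorylated kinase (10 nM 2× solution) pre-incubated 30 min at RT with compounds (11-point, 3-fold, top 10 µM), then reacted 180 min with srctide and ATP (2×: 2 mg/mL, 2.4 mM) in HEPES pH 7.5 buffer. ADP read by luminescence. IC50 from 4-parameter fit, normalized to DMSO and 1 µM TAK-593.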

VEGFR2, unphosphorylated, sequence (P35968 whole entry, looked up): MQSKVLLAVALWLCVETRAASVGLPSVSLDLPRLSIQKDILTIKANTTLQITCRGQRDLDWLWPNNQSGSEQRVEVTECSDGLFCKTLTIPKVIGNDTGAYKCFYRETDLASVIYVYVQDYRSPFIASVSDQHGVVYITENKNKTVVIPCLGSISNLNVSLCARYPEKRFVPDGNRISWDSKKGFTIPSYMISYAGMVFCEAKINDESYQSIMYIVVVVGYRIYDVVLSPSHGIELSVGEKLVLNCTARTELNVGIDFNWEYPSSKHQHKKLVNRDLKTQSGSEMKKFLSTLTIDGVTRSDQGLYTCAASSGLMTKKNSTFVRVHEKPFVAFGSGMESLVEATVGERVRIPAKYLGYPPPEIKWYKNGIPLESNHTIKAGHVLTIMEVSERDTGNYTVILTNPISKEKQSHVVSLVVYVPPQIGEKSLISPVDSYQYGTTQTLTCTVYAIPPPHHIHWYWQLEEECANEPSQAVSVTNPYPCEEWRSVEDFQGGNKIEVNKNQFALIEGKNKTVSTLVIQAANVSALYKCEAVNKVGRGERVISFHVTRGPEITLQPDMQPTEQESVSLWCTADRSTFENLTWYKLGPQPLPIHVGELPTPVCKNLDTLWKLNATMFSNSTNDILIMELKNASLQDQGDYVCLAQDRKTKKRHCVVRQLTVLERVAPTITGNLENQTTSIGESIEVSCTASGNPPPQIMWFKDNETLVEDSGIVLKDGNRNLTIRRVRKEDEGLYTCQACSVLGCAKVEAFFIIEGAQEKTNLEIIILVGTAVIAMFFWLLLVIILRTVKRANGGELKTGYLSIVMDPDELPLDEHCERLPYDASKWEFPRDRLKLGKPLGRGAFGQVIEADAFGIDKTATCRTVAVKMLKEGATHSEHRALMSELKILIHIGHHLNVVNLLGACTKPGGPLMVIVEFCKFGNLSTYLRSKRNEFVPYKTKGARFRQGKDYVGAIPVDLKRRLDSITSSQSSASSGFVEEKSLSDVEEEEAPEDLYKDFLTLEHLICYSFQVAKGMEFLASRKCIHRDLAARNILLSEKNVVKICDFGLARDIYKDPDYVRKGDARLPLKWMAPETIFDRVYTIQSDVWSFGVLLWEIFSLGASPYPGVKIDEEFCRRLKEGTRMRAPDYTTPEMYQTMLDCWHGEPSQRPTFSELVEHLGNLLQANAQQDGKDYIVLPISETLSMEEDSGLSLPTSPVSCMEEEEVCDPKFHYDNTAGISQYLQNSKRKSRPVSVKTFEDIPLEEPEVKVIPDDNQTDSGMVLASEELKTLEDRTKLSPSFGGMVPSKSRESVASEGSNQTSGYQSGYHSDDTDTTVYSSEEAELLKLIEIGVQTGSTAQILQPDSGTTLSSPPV
PDGFRβ, sequence (Q05030 whole entry, looked up): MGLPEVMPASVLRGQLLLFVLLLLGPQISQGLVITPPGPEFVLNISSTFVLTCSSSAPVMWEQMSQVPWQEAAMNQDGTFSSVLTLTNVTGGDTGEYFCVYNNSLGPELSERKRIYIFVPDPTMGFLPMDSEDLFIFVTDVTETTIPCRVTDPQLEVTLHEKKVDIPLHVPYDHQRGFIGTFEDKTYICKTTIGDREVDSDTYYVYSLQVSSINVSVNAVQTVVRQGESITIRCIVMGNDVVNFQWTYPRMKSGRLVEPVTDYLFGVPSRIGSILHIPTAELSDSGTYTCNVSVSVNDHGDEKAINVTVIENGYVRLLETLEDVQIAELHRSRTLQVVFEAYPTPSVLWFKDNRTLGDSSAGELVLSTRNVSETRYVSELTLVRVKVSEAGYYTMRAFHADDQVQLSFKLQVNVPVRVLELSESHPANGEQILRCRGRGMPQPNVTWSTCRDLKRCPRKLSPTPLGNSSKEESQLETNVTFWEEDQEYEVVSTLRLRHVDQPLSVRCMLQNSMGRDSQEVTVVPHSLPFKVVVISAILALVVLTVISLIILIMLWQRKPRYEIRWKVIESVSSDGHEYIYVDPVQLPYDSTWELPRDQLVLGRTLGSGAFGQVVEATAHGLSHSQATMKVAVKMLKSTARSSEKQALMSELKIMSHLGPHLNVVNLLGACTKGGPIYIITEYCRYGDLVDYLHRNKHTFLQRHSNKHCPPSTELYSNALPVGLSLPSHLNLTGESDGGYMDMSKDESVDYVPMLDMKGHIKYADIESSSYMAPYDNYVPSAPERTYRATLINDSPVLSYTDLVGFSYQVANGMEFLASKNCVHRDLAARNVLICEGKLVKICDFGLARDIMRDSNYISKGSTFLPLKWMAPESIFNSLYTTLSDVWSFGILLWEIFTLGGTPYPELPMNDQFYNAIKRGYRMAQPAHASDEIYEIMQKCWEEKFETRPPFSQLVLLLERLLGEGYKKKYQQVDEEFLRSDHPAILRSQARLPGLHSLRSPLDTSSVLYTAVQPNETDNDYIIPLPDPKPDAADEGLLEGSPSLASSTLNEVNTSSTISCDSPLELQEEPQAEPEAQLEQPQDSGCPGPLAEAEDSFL
Tb-labeled inactive PDGFRβ, sequence (P09619 whole entry, looked up): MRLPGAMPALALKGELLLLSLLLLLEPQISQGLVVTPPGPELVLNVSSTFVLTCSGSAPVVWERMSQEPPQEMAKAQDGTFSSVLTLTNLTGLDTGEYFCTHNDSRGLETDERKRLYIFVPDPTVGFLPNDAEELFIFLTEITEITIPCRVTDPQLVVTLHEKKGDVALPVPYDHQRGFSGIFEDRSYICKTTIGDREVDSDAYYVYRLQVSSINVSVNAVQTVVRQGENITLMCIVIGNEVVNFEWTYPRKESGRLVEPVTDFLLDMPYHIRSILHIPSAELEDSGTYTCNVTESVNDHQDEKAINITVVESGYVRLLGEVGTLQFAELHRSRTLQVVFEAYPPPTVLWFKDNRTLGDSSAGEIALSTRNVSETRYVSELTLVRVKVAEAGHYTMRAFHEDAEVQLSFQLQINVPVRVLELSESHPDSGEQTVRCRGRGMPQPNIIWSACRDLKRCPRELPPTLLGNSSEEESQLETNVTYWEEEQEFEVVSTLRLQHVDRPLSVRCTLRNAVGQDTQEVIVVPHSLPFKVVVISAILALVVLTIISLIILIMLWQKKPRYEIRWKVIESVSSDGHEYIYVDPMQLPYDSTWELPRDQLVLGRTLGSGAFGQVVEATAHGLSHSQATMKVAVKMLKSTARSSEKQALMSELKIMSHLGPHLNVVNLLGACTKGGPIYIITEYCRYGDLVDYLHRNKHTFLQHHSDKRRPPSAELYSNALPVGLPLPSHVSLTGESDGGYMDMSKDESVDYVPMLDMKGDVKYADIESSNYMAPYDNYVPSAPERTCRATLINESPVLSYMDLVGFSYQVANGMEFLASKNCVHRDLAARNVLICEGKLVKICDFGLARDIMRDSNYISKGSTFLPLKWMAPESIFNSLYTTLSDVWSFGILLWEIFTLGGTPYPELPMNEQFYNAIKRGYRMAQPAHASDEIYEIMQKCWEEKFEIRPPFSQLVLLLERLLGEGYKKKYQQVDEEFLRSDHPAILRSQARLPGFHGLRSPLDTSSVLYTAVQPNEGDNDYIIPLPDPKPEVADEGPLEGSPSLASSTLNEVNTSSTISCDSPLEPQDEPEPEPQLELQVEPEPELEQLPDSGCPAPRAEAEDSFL
His6-TEV-PDGFRβ (557-1016), sequence (P09619 whole entry, looked up): as above

Work on `Cc1ncc(C(=O)NCCN(C)C2CCCC2)cc1Nc1nn(C)c2nc(Nc3cncnc3)ncc12` [Example 9, N-(2-(cyclopentyl(methyl)amino)ethyl)-6-methyl-5-((1-methyl-6-(pyrimidin-5-ylamino)-1H-pyrazolo[3,4-d]pyrimidin-3-yl)amino)nicotinamide] yielded an IC50 [1] of 0.59 nM, an IC50 [2] of 7 nM and an IC50 (PDGFRβ) of 36.5 nM. For the same molecule, the IC50 (VEGFR2, unphosphorylated) was > 7500 nM.
In the case of `Cc1ncc(C(=O)NCCN(C)C2CCOCC2)cc1Nc1nn(C)c2nc(Nc3cncnc3)ncc12` [Example 10, 6-methyl-N-(2-(methyl(tetrahydro-2H-pyran-4-yl)amino)ethyl)-5-((1-methyl-6-(pyrimidin-5-ylamino)-1H-pyrazolo[3,4-d]pyrimidin-3-yl)amino)nicotinamide], the IC50 [1] is reported as 0.63 nM, the IC50 [2] is reported as 9.9 nM and the IC50 (PDGFRβ) is reported as 204 nM. The IC50 (VEGFR2, unphosphorylated) was > 7500 nM.
For `Cc1ncc(C(=O)NCCN2CCCC[C@H]2C)cc1Nc1nn(C)c2nc(Nc3cncnc3)ncc12` [Example 11, (R)-6-methyl-5-((1-methyl-6-(pyrimidin-5-ylamino)-1H-pyrazolo[3,4-d]pyrimidin-3-yl)amino)-N-(2-(2-methylpiperidin-1-yl)ethyl)nicotinamide], the IC50 [1] was 0.68 nM, the IC50 [2] was 5.8 nM and the IC50 (PDGFRβ) was 68.8 nM. It also gave an IC50 (VEGFR2, unphosphorylated) of ~6630 nM.
In the case of `Cc1ncc(C(=O)NCCN2CCOCC23CC3)cc1Nc1nn(C)c2nc(Nc3cncnc3)ncc12` [Example 13, N-(2-(7-oxa-4-azaspiro[2.5]octan-4-yl)ethyl)-6-methyl-5-((1-methyl-6-(pyrimidin-5-ylamino)-1H-pyrazolo[3,4-d]pyrimidin-3-yl)amino)nicotinamide], the IC50 [1] is reported as 1.55 nM, the IC50 [2] is reported as 12.8 nM and the IC50 (PDGFRβ) is reported as 152 nM. The IC50 (VEGFR2, unphosphorylated) was > 7500 nM.
`Cc1ncc(C(=O)NCCN2[C@H](C)CCC[C@@H]2C)cc1Nc1nn(C)c2nc(Nc3cncnc3)ncc12` [Example 14, N-(2-((2S,6R)-2,6-dimethylpiperidin-1-yl)ethyl)-6-methyl-5-((1-methyl-6-(pyrimidin-5-ylamino)-1H-pyrazolo[3,4-d]pyrimidin-3-yl)amino)nicotinamide] gave an IC50 [1] of 0.89 nM, an IC50 [2] of 8.5 nM and an IC50 (PDGFRβ) of 109 nM. It also gave an IC50 (VEGFR2, unphosphorylated) of ~7130 nM.
With `Cc1ncc(C(=O)NCCN(C(C)C)C(C)C)cc1Nc1nn(C)c2nc(Nc3cncnc3)ncc12` [Example 15, N-(2-(diisopropylamino)ethyl)-6-methyl-5-((1-methyl-6-(pyrimidin-5-ylamino)-1H-pyrazolo[3,4-d]pyrimidin-3-yl)amino)nicotinamide] the IC50 [1] was 1.01 nM, the IC50 [2] was 9.9 nM and the IC50 (PDGFRβ) was 33.2 nM. The IC50 (VEGFR2, unphosphorylated) was > 7500 nM.
`Cc1ncc(NC(=O)NCCN2CCCC2(C)C)cc1Nc1nn(C)c2nc(Nc3cncnc3)ncc12` [Example 16, 1-(2-(2,2-dimethylpyrrolidin-1-yl)ethyl)-3-(6-methyl-5-((1-methyl-6-(pyrimidin-5-ylamino)-1H-pyrazolo[3,4-d]pyrimidin-3-yl)amino)pyridin-3-yl)urea] was tested, and the IC50 [1] was 1.36 nM, the IC50 [2] was 18.5 nM and the IC50 (PDGFRβ) was 1480 nM. The IC50 (VEGFR2, unphosphorylated) was > 7500 nM.
`Cc1ncc(C(=O)NCCN2CCCOCC2)cc1Nc1nn(C)c2nc(Nc3cnn(C)c3)ncc12` [Example 17, N-(2-(1,4-oxazepan-4-yl)ethyl)-6-methyl-5-((1-methyl-6-((1-methyl-1H-pyrazol-4-yl)amino)-1H-pyrazolo[3,4-d]pyrimidin-3-yl)amino)nicotinamide] showed an IC50 [1] of 0.48 nM, an IC50 [2] of 2.9 nM and an IC50 (PDGFRβ) of 68.3 nM. The IC50 (VEGFR2, unphosphorylated) was ~6990 nM.
`Cc1ncc(C(=O)NCCN2CCCC2(C)C)cc1Nc1nn(C)c2nc(Nc3cncnc3)ncc12` [Example 27, N-(2-(2,2-dimethylpyrrolidin-1-yl)ethyl)-6-methyl-5-((1-methyl-6-(pyrimidin-5-ylamino)-1H-pyrazolo[3,4-d]pyrimidin-3-yl)amino)nicotinamide] showed an IC50 [1] of 0.7 nM, an IC50 [2] of 4 nM and an IC50 (PDGFRβ) of 31.2 nM. For the same molecule, the IC50 (VEGFR2, unphosphorylated) was > 10000 nM.
With `Cc1ncc(C(=O)NCCN2CCCC2(C)C)cc1Nc1nn(C)c2nc(Nc3ccncc3)ncc12` [Example 28, N-(2-(2,2-dimethylpyrrolidin-1-yl)ethyl)-6-methyl-5-((1-methyl-6-(pyridin-4-ylamino)-1H-pyrazolo[3,4-d]pyrimidin-3-yl)amino)nicotinamide] the IC50 [1] was 0.5 nM, the IC50 [2] was 3.8 nM and the IC50 (PDGFRβ) was 39.4 nM. The IC50 (VEGFR2, unphosphorylated) was ~9180 nM.
With `Cc1ncc(C(=O)NCCN2CCCC2(C)C)cc1Nc1nn(C)c2nc(Nc3cncc(C(N)=O)c3)ncc12` [Example 29, 5-((6-((5-carbamoylpyridin-3-yl)amino)-1-methyl-1H-pyrazolo[3,4-d]pyrimidin-3-yl)amino)-N-(2-(2,2-dimethylpyrrolidin-1-yl)ethyl)-6-methylnicotinamide] the IC50 [1] was 0.8 nM, the IC50 [2] was 6.6 nM and the IC50 (PDGFRβ) was 5330 nM. For the same molecule, the IC50 (VEGFR2, unphosphorylated) was > 10000 nM.
For `Cc1ncc(C(=O)NCCN2CCCC2(C)C)cc1Nc1nn(C)c2nc(Nc3cncc(C(=O)O)c3)ncc12` [Example 30, 5-((3-((5-((2-(2,2-dimethylpyrrolidin-1-yl)ethyl)carbamoyl)-2-methylpyridin-3-yl)amino)-1-methyl-1H-pyrazolo[3,4-d]pyrimidin-6-yl)amino)nicotinic acid], the IC50 [1] was 3.8 nM, the IC50 [2] was 36.8 nM and the IC50 (PDGFRβ) was > 10000 nM. The IC50 (VEGFR2, unphosphorylated) was > 10000 nM.
For `Cc1ncc(C(=O)NCCN2CCCC2(C)C)cc1Nc1nn(C)c2nc(Nc3ccc(=O)n(C)n3)ncc12` [Example 31, N-(2-(2,2-dimethylpyrrolidin-1-yl)ethyl)-6-methyl-5-((1-methyl-6-((1-methyl-6-oxo-1,6-dihydropyridazin-3-yl)amino)-1H-pyrazolo[3,4-d]pyrimidin-3-yl)amino)nicotinamide], the IC50 [1] was 2.5 nM, the IC50 [2] was 60.3 nM and the IC50 (PDGFRβ) was 390 nM. The IC50 (VEGFR2, unphosphorylated) was > 7500 nM.
With `Cc1ncc(C(=O)NCCN2CCCC2(C)C)cc1Nc1nn(C)c2nc(Nc3ccc(N)nc3)ncc12` [Example 32, 5-((6-((6-aminopyridin-3-yl)amino)-1-methyl-1H-pyrazolo[3,4-d]pyrimidin-3-yl)amino)-N-(2-(2,2-dimethylpyrrolidin-1-yl)ethyl)-6-methylnicotinamide] the IC50 [1] was 0.54 nM, the IC50 [2] was 5.7 nM and the IC50 (PDGFRβ) was 110 nM. The IC50 (VEGFR2, unphosphorylated) was > 7500 nM.
`Cc1ncc(C(=O)NCCN2CCCC2(C)C)cc1Nc1nn(C)c2nc(Nc3cncc(CC(=O)O)c3)ncc12` [Example 33, 2-(5-((3-((5-((2-(2,2-dimethylpyrrolidin-1-yl)ethyl)carbamoyl)-2-methylpyridin-3-yl)amino)-1-methyl-1H-pyrazolo[3,4-d]pyrimidin-6-yl)amino)pyridin-3-yl)acetic acid] was tested, and the IC50 [1] was 1.21 nM, the IC50 [2] was 8.8 nM and the IC50 (PDGFRβ) was > 3000 nM. It also gave an IC50 (VEGFR2, unphosphorylated) of 2190 nM.
With `Cc1ncc(C(=O)NCCN2CCCC2(C)C)cc1Nc1nn(C)c2nc(Nc3ccc(=O)[nH]c3)ncc12` [Example 35, N-(2-(2,2-dimethylpyrrolidin-1-yl)ethyl)-6-methyl-5-((1-methyl-6-((6-oxo-1,6-dihydropyridin-3-yl)amino)-1H-pyrazolo[3,4-d]pyrimidin-3-yl)amino)nicotinamide] the IC50 [1] was 0.68 nM, the IC50 [2] was 4.7 nM and the IC50 (PDGFRβ) was 1650 nM. The IC50 (VEGFR2, unphosphorylated) was > 7500 nM.
In the case of `Cc1ncc(C(=O)NCCN2CCCC2(C)C)cc1Nc1nn(C)c2nc(Nc3ccc(=O)[nH]n3)ncc12` [Example 36, N-(2-(2,2-dimethylpyrrolidin-1-yl)ethyl)-6-methyl-5-((1-methyl-6-((6-oxo-1,6-dihydropyridazin-3-yl)amino)-1H-pyrazolo[3,4-d]pyrimidin-3-yl)amino) nicotinamide], the IC50 [1] is reported as 4.11 nM, the IC50 [2] is reported as 88.3 nM and the IC50 (PDGFRβ) is reported as > 3000 nM. The IC50 (VEGFR2, unphosphorylated) was > 7500 nM.
For `COC(=O)C1(c2cccc(Nc3ncc4c(Nc5cc(C(=O)NCCN6CCCC6(C)C)cnc5C)nn(C)c4n3)c2)CC1` [Example 37, methyl 1-(3-((3-((5-((2-(2,2-dimethylpyrrolidin-1-yl)ethyl)carbamoyl)-2-methylpyridin-3-yl)amino)-1-methyl-1H-pyrazolo[3,4-d]pyrimidin-6-yl)amino)phenyl)cyclopropanecarboxylate], the IC50 [1] was 0.79 nM, the IC50 [2] was 6.5 nM and the IC50 (PDGFRβ) was 64.2 nM. It also gave an IC50 (VEGFR2, unphosphorylated) of 5560 nM.
